Among the data in US12391701B2, “Chromene-based compounds, methods and uses thereof” (University of Minho, priority 2019, dated 2025) are IC50 values, retold here.

pIC50: −log10 of the molar value. Where two headings read alike, the source gives them in different places.

Holding throughout (type): cell-based
Experiment [1] concerns non-neoplastic cell line MCF-10A. The experiment in a line: Cell viability assay (MTS), MCF-10A. As to conditions: Homo sapiens, 72 h incubation. The procedure:
(§1) In an embodiment, the cell growth inhibition and IC50 values of the synthesised and isolated chromene-based compounds were determined as part of the evaluation of the antiproliferative activity of the isolated agents. A complete study on the structure-activity relationship was performed for all the synthesised compounds. The antiproliferative activity against MCF-7 breast cancer cell lines were analysed. […] The non-neoplastic cell line MCF-10A was also used to determine the selectivity of the compounds for the tumour cells. For compounds with an IC50 value (concentration required to reduce cell viability by 50%) higher than 20 μM, the IC50 value was not determined. Selectivity index (SI) was calculated in order to evaluate the cytotoxicity of the tested compounds.
(§2) In an embodiment, three human breast cancer cell lines Hs578T, MDA-MB-468 and MCF-7, and a normal breast cell line MCF-10A, were obtained from ATCC (American Type Culture Collection). The cancer cell lines were cultured in Dulbecco's modified Eagle medium, 4.5 g/l glucose (DMEM, Gibco) supplemented with 10% heating inactivated Fetal Bovine Serum (FBS, Gibco) and 1% antibiotic solution (Penicillin-Streptomycin, Gibco). The normal cell line was cultured in Dulbecco's Modified Eagle Medium: Nutrient Mixture F-12 (DMEM/F12, Gibco) supplemented with 5% heating inactivated FBS (Gibco), 1% antibiotic solution (Penicillin-Streptomycin, Gibco), 1% steroid hormone (Hydrocortisone, Sigma-Aldrich), 0.1% peptide hormone (Insulin, Sigma-Aldrich) and 0.01% protein complex (Cholera Toxin, Gibco). Two distinct human acute myeloid leukemia (AML) cell lines, HL-60 (FAB M2) and KG-1 (erythroleukemia-FAB M6), and one human lymphoblastic leukemia (ALL) cell line, Jurkat (T cell type), were also used. These three cell lines were obtained from German Collection of Microorganisms and Cell cultures (DMSZ®, Deutsche Sammlung von Mikroorganismen and Zellkulturen in German). Cells were cultured in RPMI 1640 medium (Biochrom®-Merck Millipore) supplemented with 10% heating inactivated FBS (Biochrom®-Merck Millipore) and 1% antibiotic/antimitotic mixture (Invitrogen®). Three human glioblastoma (GBM) cell line models, two established and commercially available cell lines (U87MG and GAMG, kind gift from Rui M. Reis) and one primary GBM culture (GLIB) were also used. GBM cells were cultures in DMEM (Biochrom-Merck Millipore), all supplemented with 10% FBS. The Renal cell carcinoma cell lines A498, 786-O, Caki-2 and HK2 were obtained from ATCC. The cancer cell line A498 was cultured in MEM medium (Biochrom®-Merck Millipore), 786-O was cultured in RPMI 1640 medium (Biochrom®-Merck Millipore), Caki-2 was cultured in Mc Coys medium (Biochrom®-Merck Millipore) and HK2 was cultured in RPMI 1640 medium (Biochrom®-Merck Millipore). All the media were supplemented with 10% heat inactivated FBS (Biochrom®-Merck Millipore) and 1% antibiotic/antimitotic mixture (Invitrogen®). All cells were grown in a humidified incubator at 37° C. and 5% CO2. For all assays, DMSO (Dimethyl Sulfoxide, Sigma-Aldrich) controls were used.
(§3) In an embodiment, cell viability assays were performed. MCF-7, Hs578T and MCF-10A cells were plated in triplicate in 96-multiwell culture plates, at 3000 cells […], or 5000 cells […] for MDA-MB-468 (100 μL/well). The cells were then allowed to adhere in complete medium, over a period of 18-20 hours. Cells were subsequently treated with 7 different concentrations (from 0.1 to 40 μM or 5 to 60 μM) of compounds or control in fresh medium. HL-60, KG-1 and Jurkat cell lines were plated in 96-multiwell culture plates at 50.000 cells/100 μL per well and treated with different concentrations (from 0.001 to 2 μM) of the compounds described (or control). Cells were plated, in triplicate, at an initial density of 2000 cells/well for GAMG, 4000 cells/well for GL18 and 6000 cells/well for U87MG, in 96-well plates, and allowed to adhere for 18-20 hours. […]

The subject of experiment [2] is breast cancer cell line MCF-7. The experiment in a line: Cell viability assay (MTS), MCF-7. As to conditions: Homo sapiens, MCF7; 72 h incubation. The procedure:
as §1, §2, §3

Experiment [3] concerns TNBC cell line MDA-MB-231. The experiment in a line: Cell viability assay, MDA-MB-231. As to conditions: Homo sapiens.
Experiment [4] concerns renal carcinoma cell line 786-O. The experiment in a line: Cell viability (sulforhodamine B), 786-O. Particulars: Homo sapiens, 786-0; Table 5. The procedure: (§4) In an embodiment, the antiproliferative activity of the compounds was further determined against renal carcinoma cell lines and non-neoplastic kidney cell line.
as §2
(§5) In an embodiment, cell viability assays were performed. MCF-7, Hs578T and MCF-10A cells were plated in triplicate in 96-multiwell culture plates, at 3000 cells per mL, or 5000 cells per mL for MDA-MB-468 (100 μL/well). The cells were then allowed to adhere in complete medium, over a period of 18-20 hours. Cells were subsequently treated with 7 different concentrations (from 0.1 to 40 μM or 5 to 60 μM) of compounds or control in fresh medium. HL-60, KG-1 and Jurkat cell lines were plated in 96-multiwell culture plates at 50.000 cells/100 μL per well and treated with different concentrations (from 0.001 to 2 μM) of the compounds described (or control). Cells were plated, in triplicate, at an initial density of 2000 cells/well for GAMG, 4000 cells/well for GL18 and 6000 cells/well for U87MG, in 96-well plates, and allowed to adhere for 18-20 hours. Cells were then treated with different concentrations of the compounds (0.005 to 100 μM) or with control. A498 and 786-O cells were plated at 2000 cells per mL, Caki-2 cells were plated at 3000 cells per mL and HK2 cells were plated at 2000 cells per mL in triplicate, in 96-multiwell culture plates (100 μL/well), and allowed to adhere over a period of 18-20 hours in complete medium. The cells were then treated with 7 different concentrations (from 0.1 to 40 μM or 5 to 60 μM) of compounds or control in fresh medium. […]

Experiment [5] deals with non-neoplastic cell line (HK2). The experiment in a line: Cell viability, HK2. As to conditions: for pIC50: Table 5, read-out: IC50 HK2; for IC50: Table 6, read-out: IC50 (μM) HK2. As to the method: as §4, §2, §5
The subject of experiment [6] is renal carcinoma cell line A498. The experiment in a line: Cell viability (sulforhodamine B), A498. As to conditions: Homo sapiens, Table 5. As to the method: as §4, §2, §5
The subject of experiment [7] is renal carcinoma cell line Caki-2. The experiment in a line: Cell viability (sulforhodamine B), Caki-2. As to conditions: Homo sapiens, Table 5. The procedure:
as §4, §2, §5

The pIC50 is −log10 of the IC50, conventionally taken in molar units. With `COc1cccc2c1Oc1nc(-c3ccccc3F)[nH]c1C2` [MC407, 2-(2-fluorophenyl)-5-methoxy-3,9-dihydrochromeno[2,3-d]imidazoles], the pIC50 in experiment [1] was 5.41; in experiment [2], 6.17; in experiment [3] it was 5.78; in experiment [4], 6.17; in experiment [5] it was 5.99; in experiment [6] it was 5.87. This compound also showed a pIC50 in experiment [7] of 6.36.
Usually IC50 stands for the concentration that inhibits the measured activity by half. Regarding `COc1ccccc1-c1nc2c([nH]1)Cc1cccc(OC)c1O2` [MC411, 5-methoxy-2-(2-methoxyphenyl)-3,9-dihydrochromeno[2,3-]imidazoles], the pIC50 in experiment [1] is 5.17; in experiment [2], 5.77; in experiment [3], 5.75; in experiment [4], 5.43; in experiment [5] it was 5.33; in experiment [7], 5.40. Moreover, the IC50 in experiment [5] is 4.73 µM.
As to `COc1cccc2c1Oc1nc(-c3cc(F)cc(F)c3O)[nH]c1C2` [MC410, 2,4-difluoro-6-(5-methoxy-3,9-dihydrochromeno[2,3-d]imidazol-2-yl)phenol], the pIC50 in experiment [1] was less than 4.52; in experiment [2] it was 5.45; in experiment [3], less than 4.52; in experiment [4], 6.35; in experiment [5] it was 4.64; in experiment [7], 5.07. Moreover, the IC50 in experiment [5] was 23.1 µM.
For the compound `COc1cccc2c1Oc1nc(-c3ccc(F)cc3)[nH]c1C2C1c2cccc(OC)c2Oc2nc(-c3ccc(F)cc3)[nH]c21` (stereo not shown) [MC406, 2,2′-bis(4-fluorophenyl)-5,5′-dimethoxy-1,1,9,9′-tetrahydro-9,9′-bichromeno[2,3-]imidazoles], the pIC50 in experiment [1] was 4.90; in experiment [2], 6.70; in experiment [3], 5.89; in experiment [4] it was 7.08; in experiment [5], 6.51; in experiment [6], 5.94. Further, the pIC50 in experiment [7] was 6.75.
For the compound `COc1cccc2c1Oc1nc(-c3ccc(F)cc3)[nH]c1C2` [MC409, 2-(4-fluorophenyl)-5-methoxy-3,9-dihydrochromeno[2,3-d]imidazoles], the pIC50 was 4.85 in experiment [1]; 6.19 in experiment [2]; 5.57 in experiment [3]; 6.31 in experiment [4]; 5.46 in experiment [5]; 6.25 in experiment [6]. For the same compound, the pIC50 in experiment [7] was 6.44. Moreover, the IC50 in experiment [5] is 3.49 µM.
With `CCOc1ccc(-c2nc3c([nH]2)Cc2cccc(OC)c2O3)cc1` [MC415, 2-(4-ethoxyphenyl)-5-methoxy-3,9-dihydrochromeno[2,3-d]imidazoles], the pIC50 is 5.72 in experiment [1]; 5.79 in experiment [2]; 5.85 in experiment [3]; 6.66 in experiment [4]; 5.28 in experiment [5]; 6.92 in experiment [6]. In addition, the pIC50 in experiment [7] is 7.21. Besides, the IC50 in experiment [5] is 5.24 µM.
In the case of `COc1cccc2c1Oc1nc(-c3ccccc3F)[nH]c1C2C1c2cccc(OC)c2Oc2nc(-c3ccccc3F)[nH]c21` (stereo not shown) [MC369, 2,2′-bis(2-fluorophenyl)-5,5′-dimethoxy-1,1,9,9′-tetrahydro-9,9′-bichromeno[2,3-]imidazoles], the pIC50 in experiment [1] is less than 4.70; in experiment [2], 6.59; in experiment [3], 5.60; in experiment [4], 7.28; in experiment [5] it was 6.08; in experiment [7] it was 6.96.
In the case of `COc1ccc(-c2nc3c([nH]2)Cc2cccc(OC)c2O3)c(Br)c1O` [MC416, 2-bromo-6-methoxy-3-(5-methoxy-3,9-dihydrochromeno[2,3-]imidazol-2-yl)phenol], the pIC50 in experiment [1] is 5.70; in experiment [2], 5.98; in experiment [4], 5.50; in experiment [5], 5.33; in experiment [7] it was 5.59. Besides, in experiment [5], the IC50 came to 4.72 µM.
For `COc1cccc2c1Oc1nc(-c3ccc(O)cc3)[nH]c1C2` [MC413, 4-(5-methoxy-3,9-dihydrochromeno[2,3-d]imidazol-2-yl)phenol], the pIC50 in experiment [1] is less than 4.70; in experiment [2], 5.96; in experiment [3] it was 6.20; in experiment [4] it was 6.14; in experiment [5] it was 4.99; in experiment [6] it was 6.02. In experiment [7], this compound showed a pIC50 of 6.42. Moreover, the IC50 in experiment [5] was determined as 10.3 µM.
With `COc1cccc2c1Oc1nc(-c3ccc(Br)cc3)[nH]c1C2C1c2cccc(OC)c2Oc2nc(-c3ccc(Br)cc3)[nH]c21` (stereo not shown) [MC421, 2,2′-bis(4-bromophenyl)-5,5′-dimethoxy-1,1,9,9′-tetrahydro-9,9′-bichromeno[2,3-]imidazoles], the pIC50 in experiment [1] is less than 4.52; in experiment [2], 6.51; in experiment [3], 5.53; in experiment [4], 7.11; in experiment [5] it was 5.60; in experiment [6], 6.47. Also, the pIC50 in experiment [7] is 6.37. For the same compound, the IC50 in experiment [5] was determined as 2.49 µM.
For `COc1cccc2c1Oc1nc(-c3ccc(Br)cc3)[nH]c1C2` [MC408, 2-(4-bromophenyl)-5-methoxy-3,9-dihydrochromeno[2,3-d]imidazoles], the pIC50 is 5.52 in experiment [1]; 6.21 in experiment [2]; 5.59 in experiment [3]; 7.19 in experiment [4]; 5.46 in experiment [5]; 6.85 in experiment [6]. Further, in experiment [7], the pIC50 is 7.05. Moreover, the IC50 in experiment [5] came out at 3.49 µM.
For the compound `COc1cccc2c1Oc1nc(-c3ccccc3)[nH]c1C2` [MC350, 5-methoxy-2-phenyl-3,9-dihydrochromeno[2,3-d]imidazoles], the pIC50 was 5.07 in experiment [1]; 6.13 in experiment [2]; 5.60 in experiment [3]; 6.29 in experiment [4]; 4.67 in experiment [5]; 6.08 in experiment [6]. The compound also showed a pIC50 in experiment [7] of 6.40. Also, the IC50 in experiment [5] stood at 21.5 µM.
